Test results reported in patent US20240109917A1 (ACTELION PHARMACEUTICALS LTD, priority 2020, published 2024).
Like-named read-outs stand apart in the source and are kept apart here.

Legend:
[1] = molecular target: His6-TEV-PDGFRβ (557-1016) (Homo sapiens (Human), UniProt P09619); assay: PDGFRβ HTRF Assay; assay type: biochemical; settings: read-out: PDGFR HTRF IC50
Summary of the method: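 HTRF KinEASE-TK readout (665/620 nm ratio) of TK-biotin substrate phosphorylation by His-tagged PDGFRβ kinase domain. Enzyme and inhibitor preincubated 30 min, then ATP/substrate added for 3 h at room temperature before 60 min EDTA quench/detection.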

[2] = molecular target: Tb-labeled inactive PDGFRβ (Homo sapiens (Human), UniProt P09619); assay: PDGFRβ LanthaScreen Assay; assay type: binding; settings: read-out: PDGFR Lantha IC50
PDGFRβ = PDGFRβ (Rattus norvegicus (Rat), UniProt Q05030); assay: PDGFRβ Cellular Assay (PDGFRb P-Y751 HTRF in A10 cells stimulated with PDGF-BB); assay type: cell-based
Summary of the method: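 Phospho-Y751 PDGFRβ was measured by HTRF in lysates of A10 rat cells. Cells received compound for 3 hours before PDGF-BB stimulation (100 ng/mL working stock).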

His6-TEV-PDGFRβ (557-1016), sequence (P09619 557-1016): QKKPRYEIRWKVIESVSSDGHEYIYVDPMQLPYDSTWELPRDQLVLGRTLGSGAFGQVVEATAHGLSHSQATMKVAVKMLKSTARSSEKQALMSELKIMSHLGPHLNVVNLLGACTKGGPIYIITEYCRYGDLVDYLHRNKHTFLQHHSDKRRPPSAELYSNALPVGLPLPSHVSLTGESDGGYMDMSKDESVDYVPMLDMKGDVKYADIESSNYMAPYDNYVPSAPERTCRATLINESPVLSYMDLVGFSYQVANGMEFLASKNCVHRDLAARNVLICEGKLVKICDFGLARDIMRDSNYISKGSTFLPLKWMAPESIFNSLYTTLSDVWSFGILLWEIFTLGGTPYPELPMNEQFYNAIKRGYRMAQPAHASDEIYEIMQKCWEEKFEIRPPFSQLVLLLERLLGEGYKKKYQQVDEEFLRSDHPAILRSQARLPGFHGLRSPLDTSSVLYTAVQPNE
PDGFRβ, sequence (Q05030 32-1097): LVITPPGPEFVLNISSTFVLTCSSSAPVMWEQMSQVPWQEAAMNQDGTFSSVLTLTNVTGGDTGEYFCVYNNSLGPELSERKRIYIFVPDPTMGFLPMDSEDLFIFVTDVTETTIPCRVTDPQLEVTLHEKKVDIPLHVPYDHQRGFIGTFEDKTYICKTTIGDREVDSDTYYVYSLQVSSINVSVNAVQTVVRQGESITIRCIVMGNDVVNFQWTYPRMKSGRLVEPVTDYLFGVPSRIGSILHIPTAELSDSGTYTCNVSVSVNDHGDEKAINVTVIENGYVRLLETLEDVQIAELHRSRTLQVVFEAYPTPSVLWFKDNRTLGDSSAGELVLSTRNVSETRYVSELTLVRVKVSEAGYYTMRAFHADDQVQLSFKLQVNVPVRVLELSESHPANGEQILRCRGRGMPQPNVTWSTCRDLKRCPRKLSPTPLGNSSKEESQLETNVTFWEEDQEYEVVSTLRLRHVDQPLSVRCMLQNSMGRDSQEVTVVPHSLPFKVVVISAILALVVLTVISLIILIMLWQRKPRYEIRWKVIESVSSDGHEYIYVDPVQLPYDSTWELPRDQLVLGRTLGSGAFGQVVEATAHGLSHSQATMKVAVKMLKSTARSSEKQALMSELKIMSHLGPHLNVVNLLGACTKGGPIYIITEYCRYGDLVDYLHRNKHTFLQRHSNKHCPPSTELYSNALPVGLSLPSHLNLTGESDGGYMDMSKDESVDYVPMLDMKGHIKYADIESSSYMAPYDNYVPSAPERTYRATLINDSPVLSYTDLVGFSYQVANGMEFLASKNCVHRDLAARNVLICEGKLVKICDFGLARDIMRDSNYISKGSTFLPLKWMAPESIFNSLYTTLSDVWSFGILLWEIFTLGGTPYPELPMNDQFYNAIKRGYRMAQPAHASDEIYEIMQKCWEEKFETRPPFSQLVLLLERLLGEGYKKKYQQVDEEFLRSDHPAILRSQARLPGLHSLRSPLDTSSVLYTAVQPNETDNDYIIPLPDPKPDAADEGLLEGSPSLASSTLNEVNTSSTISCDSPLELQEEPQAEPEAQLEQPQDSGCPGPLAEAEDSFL
Tb-labeled inactive PDGFRβ, sequence (P09619 33-1106): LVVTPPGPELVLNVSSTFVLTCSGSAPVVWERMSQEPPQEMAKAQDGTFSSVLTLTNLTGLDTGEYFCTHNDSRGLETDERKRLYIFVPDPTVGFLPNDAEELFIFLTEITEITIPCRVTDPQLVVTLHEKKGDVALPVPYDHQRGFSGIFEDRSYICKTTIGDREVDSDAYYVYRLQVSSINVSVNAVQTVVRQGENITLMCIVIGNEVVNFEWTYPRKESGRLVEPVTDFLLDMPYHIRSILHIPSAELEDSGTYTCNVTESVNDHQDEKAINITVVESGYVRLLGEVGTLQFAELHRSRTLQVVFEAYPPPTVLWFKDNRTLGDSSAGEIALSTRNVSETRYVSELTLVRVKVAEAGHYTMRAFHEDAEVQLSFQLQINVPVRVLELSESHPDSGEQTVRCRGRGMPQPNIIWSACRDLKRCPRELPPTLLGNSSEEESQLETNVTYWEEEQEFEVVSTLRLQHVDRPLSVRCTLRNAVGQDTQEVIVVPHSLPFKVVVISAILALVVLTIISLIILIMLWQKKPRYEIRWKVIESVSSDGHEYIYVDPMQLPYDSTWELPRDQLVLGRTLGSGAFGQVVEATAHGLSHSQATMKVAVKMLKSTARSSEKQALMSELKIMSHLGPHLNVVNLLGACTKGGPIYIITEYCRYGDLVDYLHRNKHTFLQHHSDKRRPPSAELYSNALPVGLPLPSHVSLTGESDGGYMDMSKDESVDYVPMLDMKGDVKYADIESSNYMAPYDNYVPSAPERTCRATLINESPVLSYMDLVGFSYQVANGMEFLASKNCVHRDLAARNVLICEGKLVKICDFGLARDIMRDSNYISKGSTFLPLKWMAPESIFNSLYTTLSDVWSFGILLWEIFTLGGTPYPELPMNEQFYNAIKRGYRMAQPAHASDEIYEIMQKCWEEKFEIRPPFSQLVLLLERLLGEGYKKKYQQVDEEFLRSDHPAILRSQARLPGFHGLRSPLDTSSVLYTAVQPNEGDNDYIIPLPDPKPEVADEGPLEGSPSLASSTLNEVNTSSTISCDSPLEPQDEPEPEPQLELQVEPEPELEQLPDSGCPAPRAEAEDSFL

SMILES | IC50 [1] | IC50 [2] | IC50 (PDGFRβ; read-out: PDGFR Cellular IC50) | IC50 (PDGFRβ; PDGFR Cellular IC50)
Cc1ncc(NC(=O)CN2CC(C)(C)C2)cc1NC(=O)c1cnn2cc(-c3ccnc(N4CCOCC4)c3)sc12 [Example 284, N-(5-(2-(3,3-dimethylazetidin-1-yl)acetamido)-2-methylpyridin-3-yl)-2-(2-morpholinopyridin-4-yl)pyrazolo[5,1-b]thiazole-7-carboxamide] | 0.2 nM | 2.6 nM | 2.8 nM | 
Cc1ncc(NC(=O)CN2CC(C)(C)C2)cc1NC(=O)c1cnn2cc(-c3cn[nH]c3)sc12 [Example 271, N-(5-(2-(3,3-dimethylazetidin-1-yl)acetamido)-2-methylpyridin-3-yl)-2-(1H-pyrazol-4-yl)pyrazolo[5,1-b]thiazole-7-carboxamide] | 0.2 nM | 2.8 nM | 10.3 nM | 
Cc1ncc(NC(=O)CN2CC(C)(C)C2)cc1NC(=O)c1cnn2cc(-c3ccc(CO)s3)sc12 [Example 278, N-(5-(2-(3,3-dimethylazetidin-1-yl)acetamido)-2-methylpyridin-3-yl)-2-(5-(hydroxymethyl)thiophen-2-yl)pyrazolo[5,1-b]thiazole-7-carboxamide] | 0.2 nM | 1.4 nM | 1.5 nM | 
CC(=O)Nc1cc(-c2cn3ncc(C(=O)Nc4cc(NC(=O)CN5CC(C)(C)C5)cnc4C)c3s2)ccn1 [Example 273, 2-(2-acetamidopyridin-4-yl)-N-(5-(2-(3,3-dimethylazetidin-1-yl)acetamido)-2-methylpyridin-3-yl)pyrazolo[5,1-b]thiazole-7-carboxamide] | 0.2 nM | 3.6 nM | 13.7 nM | 
Cc1ncc(NC(=O)CN2CC(C)(C)C2)cc1NC(=O)c1cnn2cc(-c3cnn(-c4cccnc4)c3)sc12 [Example 289, N-(5-(2-(3,3-dimethylazetidin-1-yl)acetamido)-2-methylpyridin-3-yl)-2-(1-(pyridin-3-yl)-1H-pyrazol-4-yl)pyrazolo[5,1-b]thiazole-7-carboxamide] | 0.3 nM | 7.1 nM | 4.4 nM | 
COc1ncccc1-c1cn2ncc(C(=O)Nc3cc(NC(=O)[C@@H]4C[C@H](C)CN4C)cnc3C)c2s1 [Example 317, N-(5-((2S,4S)-1,4-dimethylpyrrolidine-2-carboxamido)-2-methylpyridin-3-yl)-2-(2-methoxypyridin-3-yl)pyrazolo[5,1-b]thiazole-7-carboxamide] | 0.3 nM | 2.5 nM | 6.5 nM | 
Cc1ncc(NC(=O)CN2CC(C)(C)C2)cc1NC(=O)c1cnn2cc(-c3ccoc3)sc12 [Example 283, N-(5-(2-(3,3-dimethylazetidin-1-yl)acetamido)-2-methylpyridin-3-yl)-2-(furan-3-yl)pyrazolo[5,1-b]thiazole-7-carboxamide] | 0.1 nM | 2.2 nM | 1.5 nM | 
COCCn1cc(-c2cn3ncc(C(=O)Nc4cc(NC(=O)CN5CC(C)(C)C5)cnc4C)c3s2)cn1 [Example 261, N-(5-(2-(3,3-dimethylazetidin-1-yl)acetamido)-2-methylpyridin-3-yl)-2-(1-(2-methoxyethyl)-1H-pyrazol-4-yl)pyrazolo[5,1-b]thiazole-7-carboxamide] | 0.4 nM | 4.9 nM | 4.2 nM | 
Cc1ncc(NC(=O)CN2CC(C)(C)C2)cc1NC(=O)c1cnn2cc(-c3cnn(C(F)(F)F)c3)sc12 [Example 269, N-(5-(2-(3,3-dimethylazetidin-1-yl)acetamido)-2-methylpyridin-3-yl)-2-(1-(trifluoromethyl)-1H-pyrazol-4-yl)pyrazolo[5,1-b]thiazole-7-carboxamide] | 1.8 nM | 71.2 nM | 17.5 nM | 
COc1ncccc1-c1cn2ncc(C(=O)Nc3cc(NC(=O)C[C@@H]4CCCN4C(C)C)cnc3C)c2s1 [Example 323, (S)—N-(5-(2-(1-isopropylpyrrolidin-2-yl)acetamido)-2-methylpyridin-3-yl)-2-(2-methoxypyridin-3-yl)pyrazolo[5,1-b]thiazole-7-carboxamide] | 0.2 nM | 1.7 nM | 2.8 nM | 
Cc1ncc(NC(=O)CN(C)C2CCOCC2)cc1NC(=O)c1cnn2cc(-c3cnn(CS(C)(=O)=O)c3)sc12 [Example 298, N-(2-methyl-5-(2-(methyl(tetrahydro-2H-pyran-4-yl)amino)acetamido)pyridin-3-yl)-2-(1-((methylsulfonyl)methyl)-1H-pyrazol-4-yl)pyrazolo[5,1-b]thiazole-7-carboxamide] | 0.9 nM | 6.4 nM |  | 236 nM
Cc1ncc(NC(=O)CN2CC(C)(C)C2)cc1NC(=O)c1cnn2cc(-c3cnn(C4CCS(=O)(=O)CC4)c3)sc12 [Example 280, N-(5-(2-(3,3-dimethylazetidin-1-yl)acetamido)-2-methylpyridin-3-yl)-2-(1-(1,1-dioxidotetrahydro-2H-thiopyran-4-yl)-1H-pyrazol-4-yl)pyrazolo[5,1-b]thiazole-7-carboxamide] | 0.3 nM | 4.3 nM | 85.9 nM | 
COc1ncccc1-c1cn2ncc(C(=O)Nc3cc(NC(=O)CN4CCOC(C)(C)C4)cnc3C)c2s1 [Example 319, N-(5-(2-(2,2-dimethylmorpholino)acetamido)-2-methylpyridin-3-yl)-2-(2-methoxypyridin-3-yl)pyrazolo[5,1-b]thiazole-7-carboxamide] | 0.3 nM | 1.8 nM | 2.7 nM | 
Cc1ncc(NC(=O)[C@@H]2C[C@@H](C)CN2C)cc1NC(=O)c1cnn2cc(-c3cnn(C)c3)sc12 [Example 304, N-(5-((2S,4R)-1,4-dimethylpyrrolidine-2-carboxamido)-2-methylpyridin-3-yl)-2-(1-methyl-1H-pyrazol-4-yl)pyrazolo[5,1-b]thiazole-7-carboxamide] | 0.6 nM | 5.6 nM | 9.3 nM | 
CNC(=O)c1cc(-c2cn3ncc(C(=O)Nc4cc(NC(=O)CN5CC(C)(C)C5)cnc4C)c3s2)ccn1 [Example 274, N-(5-(2-(3,3-dimethylazetidin-1-yl)acetamido)-2-methylpyridin-3-yl)-2-(2-(methylcarbamoyl)pyridin-4-yl)pyrazolo[5,1-b]thiazole-7-carboxamide] | 1 nM | 21.4 nM | 51.8 nM | 
Cc1ncc(NC(=O)CN(C)C2CCOCC2)cc1NC(=O)c1cnn2cc(-c3cnn(C4CCC4)c3)sc12 [Example 296, 2-(1-cyclobutyl-1H-pyrazol-4-yl)-N-(2-methyl-5-(2-(methyl(tetrahydro-2H-pyran-4-yl)amino)acetamido)pyridin-3-yl)pyrazolo[5,1-b]thiazole-7-carboxamide] | 0.3 nM | 3.7 nM | 7.6 nM | 
Cc1ncc(NC(=O)CN2CC(C)(C)C2)cc1NC(=O)c1cnn2cc(-c3cnn(C4CS(=O)(=O)C4)c3)sc12 [Example 262, N-(5-(2-(3,3-dimethylazetidin-1-yl)acetamido)-2-methylpyridin-3-yl)-2-(1-(1,1-dioxidothietan-3-yl)-1H-pyrazol-4-yl)pyrazolo[5,1-b]thiazole-7-carboxamide] | 0.5 nM | 6.1 nM | 36.9 nM | 
COc1ncccc1-c1cn2ncc(C(=O)Nc3cc(NC(=O)CN4CCCC5(CC5)C4)cnc3C)c2s1 [Example 321, N-(5-(2-(5-azaspiro[2.5]octan-5-yl)acetamido)-2-methylpyridin-3-yl)-2-(2-methoxypyridin-3-yl)pyrazolo[5,1-b]thiazole-7-carboxamide] | 0.2 nM | 1 nM | 1.2 nM | 
CC[C@H]1CN(CC(=O)Nc2cnc(C)c(NC(=O)c3cnn4cc(-c5cccnc5OC)sc34)c2)CCO1 [Example 311, (S)—N-(5-(2-(2-ethylmorpholino)acetamido)-2-methylpyridin-3-yl)-2-(2-methoxypyridin-3-yl)pyrazolo[5,1-b]thiazole-7-carboxamide] | 0.2 nM | 1.3 nM | 2.4 nM | 
Cc1ncc(NC(=O)CN(C)C2CCOCC2)cc1NC(=O)c1cnn2cc(-c3cnn(C(C)C#N)c3)sc12 (stereo not drawn) [Example 297, 2-(1-(1-cyanoethyl)-1H-pyrazol-4-yl)-N-(2-methyl-5-(2-(methyl(tetrahydro-2H-pyran-4-yl)amino)acetamido)pyridin-3-yl)pyrazolo[5,1-b]thiazole-7-carboxamide] | 0.7 nM | 8.6 nM | 98 nM | 
Cc1ncc(NC(=O)CN2CC(C)(C)C2)cc1NC(=O)c1cnn2cc(-c3ccsc3)sc12 [Example 282, N-(5-(2-(3,3-dimethylazetidin-1-yl)acetamido)-2-methylpyridin-3-yl)-2-(thiophen-3-yl)pyrazolo[5,1-b]thiazole-7-carboxamide] | 0.1 nM | 1.2 nM | 0.9 nM | 
Cc1ncc(NC(=O)CC23CCCN2CCC3)cc1NC(=O)c1cnn2cc(-c3cnn(C)c3)sc12 [Example 302, 2-(1-methyl-1H-pyrazol-4-yl)-N-(2-methyl-5-(2-(tetrahydro-1H-pyrrolizin-7a(5H)-yl)acetamido)pyridin-3-yl)pyrazolo[5,1-b]thiazole-7-carboxamide] | 1.2 nM | 61.2 nM | 7 nM | 
COc1ncccc1-c1cn2ncc(C(=O)Nc3cc(NC(=O)CN4CCOCC45CCC5)cnc3C)c2s1 [Example 310, N-(5-(2-(8-oxa-5-azaspiro[3.5]nonan-5-yl)acetamido)-2-methylpyridin-3-yl)-2-(2-methoxypyridin-3-yl)pyrazolo[5,1-b]thiazole-7-carboxamide] | 0.3 nM | 1.4 nM | 3.3 nM | 
